Test results from publication PMC12707362, “Targeting Aurora Kinases as Essential Cell‐Cycle Regulators to Deliver Multi‐Stage Antimalarials Against Plasmodium Falciparum” (Angewandte Chemie (International Ed. in English), 2025).
In brackets after ≈: the same amount, converted by molar mass.

Assays:
recombinant PfArk3 = test: KinaseSeeker three-hybrid split-luciferase competitive binding assay, PfArk3; parameters: species or system Plasmodium falciparum; conditions: single point 1 µM
Experimental: Supplementary Figure S3: (A) Single-point activity profile of selected inhibitors at 1 µM against recombinant PfArk-1 and PfArk-3 proteins, utilising a three-hybrid split-luciferase competitive binding assay (KinaseSeeker™).

[1] = Human liver microsome clearance; assay type: in vitro ADME; conditions: human liver microsomes; for microsomal CLint: read-out: HL microsome CLint; for half-life: read-out: HL microsome t1/2
Excerpt: (§1) In vitro ADME analysis for logD, kinetic solubility (PBS, pH 7.4), human liver microsome clearance and t1/2, rat hepatocyte clearance and t1/2, and protein binding in Albumax media (simulating the malaria parasite culture media) was all performed as per standard assays by TCG LifeSciences.

Kinetic solubility = assay type: physicochemical; conditions: aqueous buffer, kinetic from dmso stock; PBS, pH 7.4; read-out: Kin sol pH 7.4
Excerpt: as §1

eLogD = assay type: physicochemical
Excerpt: as §1

[2] = test system: hepatocellular carcinoma (HepG2) cells; test: Cytotoxicity counter-screening (MTT), HepG2; conditions: read-out: HepG2 CC50; 48 h, MTT
Experimental: HepG2 and CHO cells were maintained at 37 °C, under a humidified atmosphere of 5% CO2, in DMEM high glucose media (Gibco) supplemented with 10% heat-inactivated FBS and 1% (v/v) Penicillin-Streptomycin antibiotics. […] The supernatant was discarded, and the cell pellet was resuspended in 1 mL DMEM media for cell counting by Trypan Blue. To determine the toxicity, cells were resuspended and seeded at a concentration of 1x10^4 cells/well in a 96-well plate and incubated for 24 h^[9,10]. Cells were treated in duplicate with a 10-fold serial dilution starting at 100 ug/mL of inhibitor in new media. After 48 h incubation, the viable cells were measured using the MTT tetrazolium reduction assay, where sterile 25 µL of a 5 mg/mL MTT was added to each well and incubated for 4 h before the […] formazan crystals were dissolved with 100 µL DMSO (Merck) per well. The absorbance, a measure of intracellular reduction of MTT, was measured at 540 nm (Multiskan GO). Emetine (50 µM) was included as a positive drug control, and the background was subtracted from all data before being normalised to the untreated^[9,10].

[3] = test system: intracellular hemozoin formation in P. falciparum; test: Cellular heme fractionation assay; assay type: cell-based, Plasmodium falciparum; conditions: intracellular fractions
Experimental: The assay set-up followed that described in^[30,32] optimised to a multi-well colourimetric assay for determining heme species in P. falciparum. Briefly, P. falciparum ring-staged parasites were incubated at 2xIC50 value of the test inhibitor for 24 hours. Thereafter, the incubated parasites (trophozoites) were harvested and isolated through various steps of a cellular fractionation process. The cellular fractionations allow for direct quantification of the three major heme species in the trophozoites, namely hemoglobin, free heme, and hemozoin. These heme species can be determined spectroscopically using the aqueous pyridine-ferrochrome method. This method is based on the principle that aqueous pyridine forms a low-spin complex with heme but not hemozoin, and since the absorbance obeys Beer’s law, it allows for the quantification of heme concentration in solution. The various heme fractions were recovered and measured as follows, after the P. falciparum trophozoite cells were harvested following exposure to probe inhibitors:
Water (100 µL) was added to lyse the cells, and the suspension was sonicated for 5 min. This was followed by the addition of 50 µL 0.2M HEPES buffer pH 7.5, and then centrifugation at 3600 rpm for 20 min. The resulting supernatant (containing hemoglobin) was then transferred into an adjacent set of wells on the same plate. To which 50 µL of each of 4% SDS, 0.3 M NaCl and 25% pyridine were added, respectively. Thereafter, 200 µL of the resulting solution ([…]) was transferred to a set of wells on a separate 96-well plate for UV-vis analysis^[32,33].
The pellet from the centrifugation step described above consists of heme and hemozoin. […] Then 50 µL each of HEPES 0.2 M pH 7.5, 0.3 M NaCl, and 25% pyridine were added, respectively. The mixture was centrifugated at 3600 rpm and the supernatant (250 µL) was transferred to adjacent wells on a separate 96-well plate. Thereafter, 150 µL of water was added and 200 µL of the mixture transferred to a set of wells on a separate plate for UV-vis analysis^[32,33].
To the remaining pellet, 50 µL each of water and 0.3 M NaOH were added, and the mixture was sonicated for 15 min. After 30 min of incubation at room temperature, 50 µL each of HEPES 0.2 M pH 7.5, 0.3 M HCl, and 25% pyridine were added, respectively. To the resulting mixture (250 µL), 150 µL of water was then added, and 200 µL of this was transferred to a set of wells on a separate 96-well plate for UV-vis analysis^[32,33].
Cell counts for the assay were performed using the flow cytometry method described in^[33]. Cell counting determines the number of trophozoites per sample and, therefore, allows for the quantification of the amount of heme found in each individual cell.

[4] = Protein binding in Albumax II media; assay type: in vitro ADME; conditions: bovine
recombinant PfNek1 = test: KinaseSeeker single-point assay, PfNek1; assay type: binding, Plasmodium falciparum; conditions: single point 1 µM
[5] = test system: PfArk2 (PF3D7_0309200) cKD parasites; test: Inhibitor susceptibility assay, PfArk2 conditional knockdown line; assay type: cell-based, Plasmodium falciparum; conditions: cKD versus control
Experimental: Compound susceptibility assays using P. falciparum Ark1 and Ark2 cKD lines were carried out as previously described^[13]. Ark1 (PF3D7_0605300) and Ark2 (PF3D7_0309200) cKD lines generated by fusing the coding sequence and non-coding RNA aptamer sequences in the 5’- and 3’-UTR, permitting translation regulation using the TetR-DOZI system^[14]. Editing was achieved by CRISPR/SpCas9 using the linear pSN054 vector that contains cloning sites for the left homology region (LHR) and the right homology region (RHR), as well as a gene-specific guide RNA under control of the T7 promoter^[15]. The final constructs were sequence-verified and further confirmed by restriction digests. Transfection into Cas9- and T7 RNA polymerase-expressing NF54 parasites was carried out by pre-loading erythrocytes with the donor vector as previously described^[16]. Parasite culture was maintained continuously in 500 nM anhydrotetracycline (aTc, Sigma-Aldrich 37919) and drug selection with 2.5 μg/mL of Blasticidin S (RPI Corp B12150-0.1) was initiated four days after transfection. Briefly, synchronous ring-stage Ark1 (PF3D7_0605300) and Ark2 (PF3D7_0309200) cKD parasites, as well as a control parasite line expressing an aptamer-regulatable fluorescent protein, were maintained in the presence of high aTc (500 nM) or no aTc and distributed into 384-well polystyrene microplates (Corning). […]

PfNF54 schizonts = test: Stage-specific morphological evaluation, nuclei count per schizont; assay type: cell-based, Plasmodium falciparum; conditions: TAE684 3xIC50, hesperadin IC99; n = 30
Experimental: Nuclei content was detected by consecutive staining with SYBR Green I (DNA fluorescence), detected in the FITC channel.
To determine the stage specificity during asexual intra-erythrocytic development, P. falciparum NF54 parasites were synchronised using 5% D-Sorbitol to obtain a >90% ring-stage population (6–10 h post-invasion, hpi). […] The rate of activity and stage-specificity was monitored morphologically using Giemsa-stained thin smears. Asexual intra-erythrocytic stage parasites were treated at ring, early/late trophozoite, and schizont stages, sampling every 12 h over a 48-hour period. Images were captured using a Nikon Eclipse 50i light microscope adapted with a Nikon camera (Nikon DS-Fi1) and NIS-Elements software. […] Parasite progression was monitored every 12 h over a 48-h period using flow cytometry, as described in^[11]. The IC50 speed assay was conducted as described in^[12]. Briefly, unsynchronised P. falciparum NF54 asexual proliferation was determined using a SYBR Green I proliferation-based assay and expressed as IC50 values as described earlier. Four incubation times were employed for each inhibitor: 96 (standard assay time), 72, 48 and 24 h. IC50 values were obtained from corrected dose-response curves using Graph-Pad Prism v10.5.

SMILES	microsomal CLint [1] [µL/min/mg]	half-life [1] [h]	solubility kinetic (Kinetic solubility) [µM]	eLogD pH 7.4 (eLogD)	CC50 [2] [µM]	free heme level [3]	hemozoin level [3]	further results
CCN1CCN(C(=O)Cc2ccc(Nc3ncc(F)c(Nc4ccc(C(=O)Nc5ccccc5Cl)cc4)n3)cc2)CC1 [AAi I, Aurora A Inhibitor I]	–	–	–	–	–	–	–	inhibition of PfArk3 (recombinant PfArk3): 40%
O=C(Nc1c[nH]nc1-c1nc2ccc(CN3CCOCC3)cc2[nH]1)NC1CC1 [AT83, AT9283]	3.5	6.58	22.2 (≈ 8.47 µg/mL)	2.2	–	–	–	–
CCN(CCO)CCCOc1ccc2c(Nc3cc(CC(=O)Nc4cccc(F)c4)n[nH]3)ncnc2c1 [AZD-1152, AZD-1152-HQPA]	–	–	–	–	25.9	–	–	–
COc1cc(N2CCC(N3CCN(C)CC3)CC2)ccc1Nc1ncc(Cl)c(Nc2ccccc2S(=O)(=O)C(C)C)n1 [TAE684, NVP-TAE684]	25.4	0.917	198 (≈ 122 µg/mL)	3.4	–	significant increase in free heme	decrease in hemozoin formation	fraction unbound [4]: 0.2; effect on PfNek1 (recombinant PfNek1): 40%; change in IC50 in PfArk2 cKD [5]: no change in the IC50 value; number of daughter merozoites per schizont (PfNF54 schizonts): significant reduction in the number of daughter merozoites
COc1cc2c(Nc3ccc(NC(=O)c4ccccc4)cc3)ncnc2cc1OCCCN1CCOCC1 [ZM-39, ZM-447439]	–	–	–	–	26.5	significant increase in free heme	decrease in hemozoin formation	–
